Experimental data reported in patent US20110160266A1, “Novel Anti-Arrhythmia Agent” (THE UAB RESEARCH FOUNDATION, priority 2008, published 2011).
“And” between values parts separate entries of the source, which are not always exact repeats. Identical values can stand only once. Counter-ions that a name gives are not always drawn. Marks after values point to notes of the source that are not given here.

Tests used:
[1] = system: isolated, superfused rat left atria
Description: Left atria were isolated from male Sprague-Dawley rats (325 to 400 g) under IP pentobarbital anesthesia (0.1 g/kg). Isolated left atria were superfused at 30° C. in Krebs-Henseleit (KH) buffer of the following mM composition: NaCl, 118; NaHCO3, 27; KCl, 4.8; MgSO4, 1.2; KH2PO4, 1.0; CaCl2, 1.8; and glucose, 11.1. Nearly isometric left atrial forces of contraction were measured as described.
Isolated superfused left atria were paced at 3 Hz. 2-APB was added to atrial superfusates from 0.015 or 0.15M DMSO stock solutions to achieve concentrations of 0, 2, 7.5, 15, or 22 μM (n=5 to 10 atria per concentration). Changes in atrial mechanical force were recorded during a subsequent 15 min superfusion.
Two groups of 5 to 6, 3 Hz paced atria were superfused in KH and exposed to 0 or 15 μM 2-APB for 10 min. The pacing stimulus was interrupted for 5 min and the number of spontaneous mechanical events (SMEs), defined as increases in mechanical force occurring in the absence of pacing, were measured as was the postrest potentiation response (PRP).
To determine whether diastolic interval affected the interaction between 2-APB and left atria, atrial pacing was decreased to 0.1 Hz, and 0, 7.5, or 22 μM 2-APB was added to the superfusate (n=6-8 per group). Superfusions continued for 15 min, and changes in atrial mechanical function were observed.
To establish whether SMA was reversible, atria (n=7) were paced at 0.1 Hz, exposed to 15 μM 2-APB for 10 min, and washed with KH. The effect of removing 2-APB on atrial mechanical function was recorded.

rat left atria [2] = system: rat left atria
Description: The initial potentiated beat following prolonged rest (i.e., the PRP maximum force of contraction) reflects activator calcium available for SR release. The PRP response was used to obtain an indirect measure of left atrial SR calcium under our conditions.
Left atria (n=6) were superfused in KH, paced at 0.1 Hz, and subjected to PRP. Superfusion proceeded for another 35 min, and a second PRP was performed. These 2 forces were compared to assure the mechanical stability of our preparations.
One group (n=8) was superfused in KH, paced at 0.1 Hz, and their maximum force of contraction was measured.
A second group (n=8) was paced at 0.1 Hz in KH and subjected to PRP. They were exposed to 22 μM 2-APB and, after the appearance of SMA, were washed with KH containing 22 μM 2-APB and 82 mM sodium. Superfusion continued for 23 min and a second PRP was performed.
Control 0.1 Hz paced atria (n=8) were subjected to PRP and exposed to 400 μM DIDS, and a second PRP was performed 23 min later.
A group of atria (n=8) were paced at 0.1 Hz in KH and subjected to PRP. They were exposed to 22 μM 2-APB, 400 μM DIDS was added to the superfusate after the appearance of SMA, and a second PRP was performed 23 min later.

isolated rat left atria = assay: Pharmacological activation of spontaneous tachycardic activity (STA): calcium-loading agents with or without 2-APB
Description: Male Sprague-Dawley rats (325-400 g) were anesthetized with intra-peritoneal pentobarbital (0.1 g/kg). Their right and left atria were isolated, superfused at 30° C. in Krebs-Henseleit buffer, and nearly isometric forces of contraction were measured from these muscles (Wolkowicz et al., 2002). 2-APB was prepared as a 150 mM dimethyl sulfoxide stock.
Left atria (n=8 per group) were paced at 3 Hz and (i) titrated with 0 to 30 nM isoproterenol (Ahlquist, 1970) or (ii) exposed to 3 μM forskolin (Laurenza et al., 1980). Left atrial force and frequency of contraction, the time to peak tension and relaxation times were recorded after a 3-5 min exposure to forskolin or to any concentration of isoproterenol. The 3 Hz pacing stimulus was interrupted at the end of these protocols to measure SMA. […]
Left atrial contraction and relaxation times were recorded at these five times, the pacing stimulus was stopped and rates of SMA were recorded. […] Atrial mechanical function was measured at these four times; the pacing stimulus then was stopped and rates of SMA were recorded.
Left atria (n=6 per group) were paced at 3 Hz, titrated with 0 to 300 nM (−)BayK 8644 ([…]-1,4-Dihydro-2,6-dimethyl-5-nitro-4-[2-(trifluormethyl)phenyl]-3-pyridinecarboxylic acid methyl ester; Franckowiak et al. 1985) or FPL-64176 (2,5-Dimethyl-4-[2-(phenylmethyl)benzoyl]-1H-pyrrole-3-carboxlic acid methyl ester); Zheng et al., 1991) and their mechanical function and rates of SMA were recorded after a 5 min exposure to any concentration of slow calcium channel activator.
Atrial mechanical function was recorded at this time; the pacing stimulus then was stopped and rates of SMA were recorded. […]
Left atria (n=7) were paced at 3 Hz, treated with 120 μM ouabain (Illanes and Marshall, 1964), and any change in mechanical function was recorded at a new steady state, ˜10 min later. […]

[3] = system: right ventricular muscle strips and right ventricular papillary muscles; assay: Ventricular muscle model of SMA; design: species or system rats; settings: added to the superfusate in appropriate amounts; paced at 0.5 Hz
From the text: To further establish this model as a general test for arrhythmic and anti-arrhythmic agents, right ventricular muscle strips and right ventricular papillary muscles were isolated from anesthetized rats using methods known to persons skilled in the art. These muscles were then superfused as described above and paced at 0.5 Hz.

rat left atria [4] = assay: Suppression of STA induced by 2-APB plus BayK 8644 or isoproterenol in left atria
Description: 3 Hz-paced left atria (n=9 per group) were superfused (i) in Krebs-Henseleit alone or (ii) they were treated with 20 μM 2-APB for 10 min, (iii) with 300 nM BayK 8644 for 10 min and with 20 μM 2-APB for 10 min, or (iv) they were treated with 300 nM BayK 8644 and 20 μM 2-APB for 10 min, then with 70 μM zatebradine (3-[3-[[2-(3,4-Dimethoxyphenyl)ethyl]methyl amino]propyl]-1,3,4,5-tetrahydro-7,8,-dimethoxy-2H-3-benzazepin-2-one hydrochloride) for 10 min (Baruscotti et al., 2005). Pacing was interrupted at these times and rates of SMA were recorded.
(§1) Left atria (n=9) were paced at 0.1 Hz, treated with 300 nM BayK 8644 for 5 min, then with 20 μM 2-APB for 10 min, and the pacing stimulus was stopped. These preparations then were incubated with six increasing concentrations of zatebradine (10-100 μM) for 3-5 min at each concentration, and rates of SMA were recorded. Untreated right atria (n=9) also were titrated with zatebradine and its effect on contraction frequency was recorded.
To test whether zatebradine affects left atrial force of contraction, two groups of left atria (n=9 per group) were paced at 3 Hz and treated with 300 nM BayK 8644. Five minutes later one group was incubated with six increasing concentrations of zatebradine (10-100 μM) for 3-5 min at each concentration, and forces of contraction were recorded. A second group was treated with BayK 8644 but not zatebradine, and forces of contraction were recorded at corresponding times.
(§2) To test whether zatebradine affects the SMA occurring in the presence of 2-APB and isoproterenol, left atria (n=7) were paced at 0.1 Hz, treated with 30 nM isoproterenol for 5 min, then with 20 μM 2-APB for 10 min, and the pacing stimulus was stopped. Rates of SMA were recorded, these left atria were exposed to 70 μM zatebradine for 10 min, and rates of SMA were recorded again. A group of right atria (n=7) also were exposed to 30 nM isoproterenol for 5 min and then to 70 μM zatebradine for 10 min. Right atrial contraction frequency was recorded at these two times.
(§3) To test whether ZD-7288, an If inhibitor structurally unrelated to zatebradine (Baruscotti et al., 2005; Sanders et al., 2006) affects the SMA occurring in the presence of 2-APB and BayK 8644, rat left atria (n=7) were treated with 300 nM BayK 8644 for 5 min, then with 20 μM 2-APB for 10 min, and the rates of ectopic activity were recorded. These atria then were incubated with six increasing concentrations of ZD-7288 (10-100 μM) for 3-5 min at each concentration, and the rates of SMA were recorded. Right atria (n=7) were titrated similarly with ZD-7288 (0-100 μM) and the change in their contraction frequency was recorded.
In these experiments, a 2-APB model system was used to simulate tachycardic abnormal automaticity. Specifically, superfused left atria were treated sequentially with 300 nM BayK 8644, an activator of voltage-dependent calcium entry, which loads myocytes with calcium, and then with 2-APB (20 μM) to activate the putative myocyte system for abnormal automaticity. […] SKF-96365 (10 μM) was added to the superfusate. SKF-96365 reversed STA in these left atria within 2-3 min and the muscle became quiescent in the absence of pacing (FIG. 34, “Rest”).
Additional experiments determined the concentration-dependence of SKF-96365 inhibition of STA. These experiments were performed as described above except that various concentrations of SKF-96365 were added to the left atrial superfusate (about 10-70 μM). Exposing left atria to various concentrations of SKF-96365 reversed STA (FIG. 35).

rat right atria = assay: Right atrial spontaneous contraction frequency
Description: as §1, §2, §3

[5] = 2-APB values obtained during SMA, mean ± SEM

NCCOB(c1ccccc1)c1ccccc1 [2-APB, 2-aminoethoxydiphenyl borate] was tested, and the “reversibility of SMA on removing 2-APB from the superfusate” value ([1]; 0.1 Hz, 15 μM 2-APB, washed with KH, data not shown) was “restored regular atrial mechanical function”, the “T0.5R (time to 50% relaxation)” value [1, 5] was 35 ± 0.8 ms and the “T0.9R (time to 90% relaxation)” value [1, 5] was 74 ± 0.8 ms. The “TPT (time to peak tension)” value [1, 5] was 59 ± 1.6 ms, the “2-APB concentration giving numerous SMEs during rest and a blunted post-rest response” value ([1]; 3 Hz paced, 2-APB 10 min, then 5 min rest) was ≥ 15 µM and the “2-APB concentration giving intermittent SMEs” value ([1]; atria paced at 0.1 Hz) was ≤ 10 µM. For the same compound, the “2-APB concentration giving repeated SMEs giving way to sustained SMA” value ([1]; atria paced at 0.1 Hz) was > 15 µM, the “2-APB concentration producing sporadic/intermittent spontaneous mechanical events” value ([1]; left atria paced at 3 Hz, 5 to 10 min of exposure) was > 10 µM and > 7.5 µM and the “maximum force of left atrial contraction vs values before the addition of 2-APB” value (rat left atria [2]) was “significantly decreased”. For the same compound, the “rate of tachycardic response, Pre-washing” value (isolated rat left atria; 300 nM BayK 8644 and 20 μM 2-APB) was 224±12 contractions/min, the “rate of SMA/STA in the absence of pacing” value (isolated rat left atria; 20 μM 2-APB alone or with 30 nM isoproterenol, 3 μM forskolin, 300 nM BayK 8644, 300 nM FPL-64176 or 120 μM ouabain) was 47±6 contractions/min and ~50 contractions/min and the “T0.5R (time to 50% relaxation)” value (isolated rat left atria; concentrations per footnote) was 35.9 msc. For the same compound, the “T0.9R (time to 90% relaxation)” value (isolated rat left atria; concentrations per footnote) was 68.4 msc, the “TPT (time to peak tension)” value (isolated rat left atria; concentrations per footnote) was 57.5 msc and the “SMA Rate” value (isolated rat left atria; spontaneous atrial mechanical events, concentrations per footnote) was 47^‡ SMEs per minute. The “rate of tachycardic response, Post-washing” value (isolated rat left atria; washed with superfusate containing slow calcium channel activator but no 2-APB, 5 min later) was 0.7±0.4 contractions/min and the “induction of ventricular SMA” value [3] was “ventricular SMA was observed”.

In the case of c1ccc(B(OB(c2ccccc2)c2ccccc2)c2ccccc2)cc1 [DPBA, diphenyl boronic anhydride], the “induction of ventricular SMA” value [3] is reported as “ventricular SMA was observed”.

For COc1ccc(CCN(C)CCCN2CCc3cc(OC)c(OC)cc3CC2=O)cc1OC [zatebradine, 3-[3-[[2-(3,4-Dimethoxyphenyl)ethyl]methylamino]propyl]-1,3,4,5-tetrahydro-7,8,-dimethoxy-2H-3-benzazepin-2-one hydrochloride], the “effect on STA initiated by BayK 8644 and 2-APB” value (rat left atria [4]; 300 nM BayK 8644 + 20 μM 2-APB, zatebradine 70 μM, ZD-7288 10-100 μM, SKF-96365 about 10-70 μM) was “significantly decreases”, the “effect on left atrial force of contraction” value (rat left atria [4]; 300 nM BayK 8644, 10-100 μM zatebradine) was “does not affect left atrial force of contraction” and the “left atrial force of contraction, % of initial force” value (rat left atria [4]; 3 Hz-paced, 300 nM BayK 8644, titrated with 10-100 μM zatebradine) was 95±3.8 % of initial force. The IC50 (rat left atria [4]; Rattus norvegicus, intact left atria exposed to BayK 8644 and 2-APB, linear decrease) was 58 ± 5 µM, the “rate of appendage STA with zatebradine” value (rat left atria [4]; isoproterenol + 2-APB + 70 μM zatebradine for 10 min) was 110±24.5 contractions/min and the “right atrial contraction frequency” value (rat right atria; 30 nM isoproterenol, then 70 μM zatebradine for 10 min) was 212±9.7 contractions/min. The IC50 (rat right atria; Rattus norvegicus, untreated right atria titrated with zatebradine, read-out: IC50 for decrease of right atrial contraction frequency) was 12 ± 1.1 µM and the “maximum decrease of right atrial contraction frequency” value (rat right atria; zatebradine titration) was ~50%.
